Assay results: patent US11267831B2, “EF-Tu-binding metal-containing antibiotic” (Ruhr-Universitaet Bochum, priority 2017, dated 2022)

tested on: B. subtilis; test: Proteome analysis via 2D-PAGE with 35S-methionine labelling of newly synthesized proteins; assay type: cell-based, Bacillus subtilis; settings: 3 μg/ml DS50, 0.15 μg/ml nocathiacin I, 8 μg/ml GE2270 A or 50 μg/ml kirromycin, 15 min
Experimental: B. subtilis was grown to an OD500 of 0.35 in BMM and treated with 3 μg/ml DS50 or 12 μg/ml biotin-DS50 for 15 min or left untreated as control. The following concentrations were used for the reference antibiotics: 0.15 μg/ml nocathiacin I, 8 μg/ml GE2270 A or 50 μg/ml kirromycin. Radioactive labelling of newly synthesized proteins during antibiotic treatment with ^35S-methionine and 2D-PAGE analysis were essentially performed as described^38.
Protein spots were cut out of the gel and decolorized twice in a washing solution (20 mM ammonium bicarbonate, 30% acetonitrile). Disulfide bridges in proteins from gel pieces obtained from 1D-PAGE gels were reduced with 10 mM DTT in wash solution at 60° C. for 45 min. Cysteine alkylation was then performed with 50 mM iodoacetamide (IAA) in a washing solution for 25 min at room temperature in the dark. The gel pieces were washed twice with washing solution for 5 min at room temperature. The reduction and alkylation steps were omitted for samples from 2D-PAGE experiments. […] Gradient for identification of proteins from 1D-PAGE: initial, 0.5% eluant B (0.1% formic acid (FA) in acetonitrile); 1 min, 0.5% eluant B; 45 min, 60% eluant B; 48 min, 90% eluant B; 49 min, 99% eluant B; 51 min, 99% eluant B; 52 min, 0.5% eluant B; 60 min, 0.5% eluant B. 0.1% FA in water served as eluent A. Gradient for the identification of proteins from 2D-PAGE: initial, 0.5% eluent B; 22 min, 50% eluent B; 23 min, 99% eluent B; 26 min, 99% eluent B; 27 min, 0.5% eluent B; 30 min, 0.5% eluent B. Continuous MS^E spectra were recorded in a mass range of 50-1200 m/z and with a scanning time of […] in positive resolution mode with the following settings: Capillary voltage, 1.7 kV; cone voltage, 30 V; source temperature, 100° C.; cone gas flow, 50 l/h; desolvation gas flow, 500 l/h; desolvation temperature, 150° C. […] For protein identification, a database with 4180 proteins of B. subtilis was used (NCBI reference sequence: NC_000964.3, manually added: trypsin, keratin, quantification standard PhosB). […]

Row | Compound | protein biosynthesis compared to control conditions
1 | CNC(=O)C[C@@H]1NC(=O)c2csc(n2)-c2ccc(-c3nc(C4=N[C@H](C(=O)N5CCC[C@H]5C(N)=O)CO4)cs3)nc2-c2csc(n2)-c2csc(n2)[C@H]([C@@H](O)c2ccccc2)NC(=O)CNC(=O)c2nc(sc2COC)[C@H](C(C)C)NC(=O)c2nc1sc2C [GE2270 A] | −65%
2 | C=C(NC(=O)c1csc(-c2nc3c(cc2O)-c2nc(cs2)C(=O)N[C@@H]([C@@H](C)O)C(=O)N/C(=C(\C)OC)c2nc(cs2)C(=O)N[C@@H]2c4nc(cs4)C(=O)N[C@@H](COC(=O)c4c5c6c(cccc6n4O)COC(=O)[C@@H](O[C@H]4C[C@](C)(O)[C@H](N(C)C)[C@H](C)O4)[C@H]2OC5)c2nc-3cs2)n1)C(N)=O.O=C(O)C(F)(F)F [nocathiacin I] | −15%
3 | kirromycin | not affected
